Experiment: In vitro release of TU, jar technique, 1% CTAB in TRIS buffer pH 8.7, 37° C.
Format: in vitro ADME
Details: FIG. 14, Table 11 formulations, 200 mg depot in 200 mL media
Protocol: The in vitro release profiles of solidifying liquid polymer formulations containing TU were conducted using jar technique method with 1% CTAB surfactant in TRIS buffer, pH 8.7 at 37° C. Depots were made by injecting 200 mg of formulation into 200 mL release media. Samples were then periodically collected and analyzed for released drug content. […] Non-formulated TU with a particle size of 67 μm (i.e., with no polymer) were also analyzed as a reference. Additionally, a 20% TU non-solidifying liquid polymer comprising 30% of a 14.2 kDa PDLCL liquid polymer with 25% NMP and 25% PEG 300 was prepared as a reference.

CCCCCCCCCCC(=O)O[C@H]1CC[C@H]2[C@@H]3CCC4=CC(=O)CC[C@]4(C)[C@H]3CC[C@]12C [non-formulated TU particles, testosterone undecanoate]
TU released within the first 7 days: approximately 75%
